Measurements reported in US10457654B2 (GENENTECH, INC., priority 2017, dated 2019).
Counter-ions that a name gives are not always drawn.

Assays:
[1] = molecular target: T1, hNav1.7 (Homo sapiens (Human), UniProt Q15858); experiment: Tritiated compound binding to membranes from cells expressing hNav1.7 and the β1 subunit, competitive binding (LBA, Ex. 243A); conditions: 100 pM [3H]compound, 18 h, room temperature; read-out: Nav1.7 LBA (Ex. 243A) IC50
Target sequence in this assay (Q15858 whole entry, looked up): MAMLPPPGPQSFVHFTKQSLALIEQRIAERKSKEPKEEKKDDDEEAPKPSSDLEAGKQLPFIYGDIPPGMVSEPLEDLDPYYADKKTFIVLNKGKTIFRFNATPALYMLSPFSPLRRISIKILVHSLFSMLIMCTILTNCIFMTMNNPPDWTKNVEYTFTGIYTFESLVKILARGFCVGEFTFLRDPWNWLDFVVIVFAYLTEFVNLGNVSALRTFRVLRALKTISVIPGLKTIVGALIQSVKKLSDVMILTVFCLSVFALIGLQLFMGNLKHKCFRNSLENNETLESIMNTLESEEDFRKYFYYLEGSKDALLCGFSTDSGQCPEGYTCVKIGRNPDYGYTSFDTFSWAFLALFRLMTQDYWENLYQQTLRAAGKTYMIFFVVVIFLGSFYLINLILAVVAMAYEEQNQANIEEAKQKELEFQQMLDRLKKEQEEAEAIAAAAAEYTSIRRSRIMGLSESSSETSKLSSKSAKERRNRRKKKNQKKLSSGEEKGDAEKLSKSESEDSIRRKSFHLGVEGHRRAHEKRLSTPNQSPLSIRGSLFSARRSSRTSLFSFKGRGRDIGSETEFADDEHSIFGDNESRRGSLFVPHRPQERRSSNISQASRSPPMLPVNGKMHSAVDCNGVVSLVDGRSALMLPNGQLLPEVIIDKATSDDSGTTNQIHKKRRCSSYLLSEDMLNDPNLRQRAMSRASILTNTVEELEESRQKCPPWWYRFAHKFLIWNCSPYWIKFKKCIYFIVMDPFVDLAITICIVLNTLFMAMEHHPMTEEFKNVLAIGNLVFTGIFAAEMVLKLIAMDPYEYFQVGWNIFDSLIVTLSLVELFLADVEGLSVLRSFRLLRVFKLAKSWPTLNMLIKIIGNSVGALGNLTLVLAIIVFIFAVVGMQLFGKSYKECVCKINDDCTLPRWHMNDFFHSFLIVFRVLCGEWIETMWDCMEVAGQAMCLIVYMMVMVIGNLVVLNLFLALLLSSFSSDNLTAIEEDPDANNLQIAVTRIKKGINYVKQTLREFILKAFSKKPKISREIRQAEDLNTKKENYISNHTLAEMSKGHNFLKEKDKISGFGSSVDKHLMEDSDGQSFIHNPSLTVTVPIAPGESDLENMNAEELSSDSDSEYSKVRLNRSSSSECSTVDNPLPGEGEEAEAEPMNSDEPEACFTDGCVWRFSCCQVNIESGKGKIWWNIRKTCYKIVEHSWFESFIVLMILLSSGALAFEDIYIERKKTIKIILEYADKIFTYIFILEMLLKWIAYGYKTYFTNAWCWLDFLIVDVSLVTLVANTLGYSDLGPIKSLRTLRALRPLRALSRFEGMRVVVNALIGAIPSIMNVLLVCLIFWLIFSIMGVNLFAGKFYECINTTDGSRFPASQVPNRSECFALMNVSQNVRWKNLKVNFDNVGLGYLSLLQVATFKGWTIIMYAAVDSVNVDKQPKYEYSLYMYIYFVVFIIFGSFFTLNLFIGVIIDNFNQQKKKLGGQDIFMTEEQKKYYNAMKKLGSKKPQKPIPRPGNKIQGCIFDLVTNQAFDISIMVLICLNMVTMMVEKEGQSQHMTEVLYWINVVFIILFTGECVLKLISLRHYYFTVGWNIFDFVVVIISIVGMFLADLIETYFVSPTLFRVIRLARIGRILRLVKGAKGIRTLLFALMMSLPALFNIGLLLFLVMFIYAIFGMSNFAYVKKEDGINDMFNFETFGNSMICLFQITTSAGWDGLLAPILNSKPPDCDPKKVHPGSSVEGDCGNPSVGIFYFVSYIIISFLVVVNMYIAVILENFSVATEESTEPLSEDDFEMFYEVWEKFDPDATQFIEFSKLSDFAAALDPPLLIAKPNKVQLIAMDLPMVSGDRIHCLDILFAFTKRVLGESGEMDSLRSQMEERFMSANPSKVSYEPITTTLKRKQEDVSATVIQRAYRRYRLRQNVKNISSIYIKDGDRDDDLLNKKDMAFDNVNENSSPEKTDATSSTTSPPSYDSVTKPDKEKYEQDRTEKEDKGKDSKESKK
Target sequence in this assay (Q07699 whole entry partner, looked up): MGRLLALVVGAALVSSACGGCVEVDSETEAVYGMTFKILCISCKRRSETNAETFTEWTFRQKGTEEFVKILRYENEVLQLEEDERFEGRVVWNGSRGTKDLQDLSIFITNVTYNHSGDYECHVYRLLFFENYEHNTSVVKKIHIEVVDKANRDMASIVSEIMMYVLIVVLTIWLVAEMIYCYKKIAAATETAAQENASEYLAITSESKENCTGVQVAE

[2] = molecular target: T1, hNav1.7; experiment: Patch voltage clamp electrophysiology assay (EP), Syncropatch 384PE, CHO cells expressing Nav1.7; type: cell-based; conditions: holding potential -50 mV; […] compound incubation; read-out: EP_SP hNav1.7 (Ex. 243B) IC50
How it was run: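 Automated whole-cell patch clamp on CHO cells stably expressing human Nav1.7, CsCl/EGTA internal and NMDG/80 mM Na+ external (pH 7.4). From −50 mV holding, −10 mV step, 20 ms recovery at −150 mV, then second −10 mV pulse where block is measured; inhibition after 7.5 min compound incubation.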
Target sequence in this assay (Q15858 other isoform, or with tags, fused parts or gaps): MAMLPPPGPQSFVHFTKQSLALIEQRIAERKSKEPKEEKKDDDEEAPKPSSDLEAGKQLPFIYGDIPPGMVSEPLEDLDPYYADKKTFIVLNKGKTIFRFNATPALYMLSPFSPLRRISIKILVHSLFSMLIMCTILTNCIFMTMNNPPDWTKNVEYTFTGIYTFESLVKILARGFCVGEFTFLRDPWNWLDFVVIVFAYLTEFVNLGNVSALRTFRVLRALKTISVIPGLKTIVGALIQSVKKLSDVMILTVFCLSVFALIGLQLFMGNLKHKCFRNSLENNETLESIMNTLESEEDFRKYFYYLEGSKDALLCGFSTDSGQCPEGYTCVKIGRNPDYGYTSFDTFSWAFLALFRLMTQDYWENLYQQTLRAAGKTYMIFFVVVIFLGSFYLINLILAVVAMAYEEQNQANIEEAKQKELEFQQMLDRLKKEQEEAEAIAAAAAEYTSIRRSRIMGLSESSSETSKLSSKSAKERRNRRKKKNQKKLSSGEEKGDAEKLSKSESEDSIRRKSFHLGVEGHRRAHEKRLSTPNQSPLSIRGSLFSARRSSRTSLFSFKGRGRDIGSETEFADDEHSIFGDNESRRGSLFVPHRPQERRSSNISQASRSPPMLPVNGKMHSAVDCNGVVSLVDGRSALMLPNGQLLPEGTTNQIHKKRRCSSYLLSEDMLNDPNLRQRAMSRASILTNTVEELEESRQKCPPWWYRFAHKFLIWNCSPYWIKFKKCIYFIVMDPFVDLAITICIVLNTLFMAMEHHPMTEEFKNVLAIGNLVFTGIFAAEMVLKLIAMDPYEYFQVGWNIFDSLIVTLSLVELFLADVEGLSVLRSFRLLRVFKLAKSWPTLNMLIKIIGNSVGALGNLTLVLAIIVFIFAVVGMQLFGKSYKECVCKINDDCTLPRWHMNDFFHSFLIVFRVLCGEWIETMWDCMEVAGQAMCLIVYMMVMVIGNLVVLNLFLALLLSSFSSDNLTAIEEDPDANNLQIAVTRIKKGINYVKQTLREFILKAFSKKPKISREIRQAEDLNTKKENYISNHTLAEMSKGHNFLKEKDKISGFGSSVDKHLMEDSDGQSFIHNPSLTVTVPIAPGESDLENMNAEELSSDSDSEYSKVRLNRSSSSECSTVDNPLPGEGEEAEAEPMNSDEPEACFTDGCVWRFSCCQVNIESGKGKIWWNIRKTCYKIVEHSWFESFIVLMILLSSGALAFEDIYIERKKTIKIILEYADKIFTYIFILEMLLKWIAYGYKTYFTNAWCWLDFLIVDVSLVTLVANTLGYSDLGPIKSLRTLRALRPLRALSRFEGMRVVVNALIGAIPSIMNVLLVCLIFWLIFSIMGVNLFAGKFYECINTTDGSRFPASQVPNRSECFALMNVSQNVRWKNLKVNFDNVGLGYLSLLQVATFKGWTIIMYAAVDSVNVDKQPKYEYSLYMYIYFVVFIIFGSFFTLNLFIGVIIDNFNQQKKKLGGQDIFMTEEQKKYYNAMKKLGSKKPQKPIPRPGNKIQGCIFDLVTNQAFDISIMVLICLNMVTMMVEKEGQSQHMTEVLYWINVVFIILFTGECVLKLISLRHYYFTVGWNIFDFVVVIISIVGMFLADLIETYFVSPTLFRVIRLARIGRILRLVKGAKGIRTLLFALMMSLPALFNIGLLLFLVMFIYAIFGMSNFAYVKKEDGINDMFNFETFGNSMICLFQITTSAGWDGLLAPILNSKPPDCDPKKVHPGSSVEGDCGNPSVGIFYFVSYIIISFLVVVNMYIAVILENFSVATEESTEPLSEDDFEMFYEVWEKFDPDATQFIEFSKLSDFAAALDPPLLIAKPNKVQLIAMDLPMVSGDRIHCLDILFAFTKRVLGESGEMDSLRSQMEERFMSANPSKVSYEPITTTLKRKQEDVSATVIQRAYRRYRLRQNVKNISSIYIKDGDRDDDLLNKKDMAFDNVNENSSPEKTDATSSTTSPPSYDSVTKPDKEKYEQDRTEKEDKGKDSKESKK

[3] = molecular target: T1, hNav1.7; experiment: Tritiated compound binding to membranes from cells expressing hNav1.7 and the β1 subunit, modified protocol (LBA, Ex. 243B); conditions: 300 pM [3H]compound, room temperature, read-out: Nav1.7 LBA (Ex. 243B) IC50
Target sequence in this assay (Q15858 whole entry, looked up): as the sequence (Q15858 whole entry, looked up) above
Target sequence in this assay (Q07699 whole entry partner, looked up): as the sequence (Q07699 whole entry partner, looked up) above

SMILES	IC50 [1]	IC50 [2]	IC50 [3]
O=S(=O)(Nc1nccs1)c1cc(Cl)c(N[C@H]2CCCC[C@@H]2N2CCCC2)cc1F [Example 30, 5-chloro-2-fluoro-4-(((1S,2S)-2-(pyrrolidin-1-yl)cyclohexyl)amino)-N-(thiazol-2-yl)benzenesulfonamide]	9.73 nM	9.77 nM	
COCCN(C)[C@H]1CCCC[C@@H]1Nc1cc(F)c(S(=O)(=O)Nc2nccs2)cc1Cl [Example 32, 5-chloro-2-fluoro-4-(((1S,2S)-2-((2-methoxyethyl)(methyl)amino)cyclohexyl)amino)-N-(thiazol-2-yl)benzenesulfonamide formate]	38.2 nM	24.6 nM	
CN(C)[C@H]1CCCC[C@@H]1Nc1cc(F)c(S(=O)(=O)Nc2cccc(F)n2)cc1Cl [Example 35, 5-chloro-4-(((1S,2S)-2-(dimethylamino)cyclohexyl)amino)-2-fluoro-N-(6-fluoropyridin-2-yl)benzenesulfonamide]	65.5 nM	59.9 nM	313 nM
CN(CCO)[C@H]1CCCC[C@@H]1Nc1cc(F)c(S(=O)(=O)Nc2nccs2)cc1Cl [Example 38, 5-chloro-2-fluoro-4-(((1S,2S)-2-((2-hydroxyethyl)(methyl)amino)cyclohexyl)amino)-N-(thiazol-2-yl)benzenesulfonamide formate]	5.05 nM	3.06 nM	34.9 nM
CN(C1CNC1)[C@H]1CCCC[C@@H]1Nc1cc(F)c(S(=O)(=O)Nc2nccs2)cc1Cl [Example 39, 4-(((1S,2S)-2-(azetidin-3-yl(methyl)amino)cyclohexyl)amino)-5-chloro-2-fluoro-N-(thiazol-2-yl)benzenesulfonamide dihydrochloride]	1.88 nM	1.4 nM	12.8 nM
CN1CC(N(C)[C@H]2CCCC[C@@H]2Nc2cc(F)c(S(=O)(=O)Nc3nccs3)cc2Cl)C1 [Example 41, 5-chloro-2-fluoro-4-(((1S,2S)-2-(methyl(1-methylazetidin-3-yl)amino)cyclohexyl)amino)-N-(thiazol-2-yl)benzenesulfonamide formate]	4.51 nM	3.4 nM	
CN(C1CNC1)[C@H]1CCCC[C@@H]1Nc1cc(F)c(S(=O)(=O)Nc2ccncn2)cc1Cl [Example 53, 4-(((1S,2S)-2-(azetidin-3-yl(methyl)amino)cyclohexyl)amino)-5-chloro-2-fluoro-N-(pyrimidin-4-yl)benzenesulfonamide]	30.5 nM	5.69 nM	
CN1CC(N(C)[C@H]2CCCC[C@@H]2Nc2cc(F)c(S(=O)(=O)Nc3cccc(F)n3)cc2Cl)C1 [Example 63, 5-chloro-2-fluoro-N-(6-fluoropyridin-2-yl)-4-(((1S,2S)-2-(methyl(1-methylazetidin-3-yl)amino)cyclohexyl)amino)benzenesulfonamide]	9.81 nM	5.35 nM	
CN(C1CNC1)[C@H]1CCCC[C@@H]1Oc1cc(F)c(S(=O)(=O)Nc2nccs2)cc1Cl [Example 66, 4-(((1S,2S)-2-(azetidin-3-yl(methyl)amino)cyclohexyl)oxy)-5-chloro-2-fluoro-N-(thiazol-2-yl)benzenesulfonamide formate]	2.07 nM	2.91 nM	7.74 nM
CN(C)[C@H]1CC[C@H](c2cccc(C(F)(F)F)c2)C[C@@H]1Nc1cc(F)c(S(=O)(=O)Nc2nccs2)cc1Cl [Example 87, 5-chloro-4-(((1S,2S,5S)-2-(dimethylamino)-5-(3-(trifluoromethyl)phenyl)cyclohexyl)amino)-2-fluoro-N-(thiazol-2-yl)benzenesulfonamide]	0.539 nM		
CN(C)[C@H]1CC[C@@H](c2cccc(C(F)(F)F)c2)C[C@@H]1Nc1cc(F)c(S(=O)(=O)Nc2nccs2)cc1Cl [Example 88, 5-chloro-4-(((1S,2S,5R)-2-(dimethylamino)-5-(3-(trifluoromethyl)phenyl)cyclohexyl)amino)-2-fluoro-N-(thiazol-2-yl)benzenesulfonamide]	201 nM		
CN(CCO)[C@H]1CCCC[C@@H]1Nc1cc(F)c(S(=O)(=O)Nc2ccncn2)cc1Cl [Example 89, 5-chloro-2-fluoro-4-(((1S,2S)-2-((2-hydroxyethyl)(methyl)amino)cyclohexyl)amino)-N-(pyrimidin-4-yl)benzenesulfonamide formate]	59.9 nM		
CN(C1CNC1)[C@H]1CCCC[C@@H]1Oc1cc(F)c(S(=O)(=O)Nc2nccs2)cc1C1CC1 [Example 90, 4-(((1S,2S)-2-(azetidin-3-yl(methyl)amino)cyclohexyl)oxy)-5-cyclopropyl-2-fluoro-N-(thiazol-2-yl)benzenesulfonamide formate]	2.64 nM		
CN(C)[C@H]1CCCC[C@@H]1Nc1cc(F)c(S(=O)(=O)Nc2nccs2)cc1C1CCC1 [Example 91, 5-cyclobutyl-4-(((1S,2S)-2-(dimethylamino)cyclohexyl)amino)-2-fluoro-N-(thiazol-2-yl)benzenesulfonamide]	13 nM		
Cc1csc(NS(=O)(=O)c2cc(Cl)c(N[C@H]3CCCC[C@@H]3N3CCCC3)cc2F)n1 [Example 92, 5-chloro-2-fluoro-N-(4-methylthiazol-2-yl)-4-(((1S,2S)-2-(pyrrolidin-1-yl)cyclohexyl)amino)benzenesulfonamide formate]	118 nM		
CN(C)[C@@H]1CC[C@@H](c2cccc(C(F)(F)F)c2)C[C@H]1Nc1cc(F)c(S(=O)(=O)Nc2nccs2)cc1Cl [Example 93, 5-chloro-4-(((1R,2R,5R)-2-(dimethylamino)-5-(3-(trifluoromethyl)phenyl)cyclohexyl)amino)-2-fluoro-N-(thiazol-2-yl)benzenesulfonamide]	64.7 nM		
CN(C[C@H](O)C(F)(F)F)[C@H]1CCCC[C@@H]1Nc1cc(F)c(S(=O)(=O)Nc2nccs2)cc1Cl [Example 94, 5-chloro-2-fluoro-4-(((1S,2S)-2-(methyl((S)-3,3,3-trifluoro-2-hydroxypropyl)amino)cyclohexyl)amino)-N-(thiazol-2-yl)benzenesulfonamide]	31.3 nM		
CN(C[C@@H](O)C(F)(F)F)[C@H]1CCCC[C@@H]1Nc1cc(F)c(S(=O)(=O)Nc2nccs2)cc1Cl [Example 95, 5-chloro-2-fluoro-4-(((1S,2S)-2-(methyl((R)-3,3,3-trifluoro-2-hydroxypropyl)amino)cyclohexyl)amino)-N-(thiazol-2-yl)benzenesulfonamide]	24.3 nM		
CCN[C@H]1CCCC[C@@H]1Oc1cc(F)c(S(=O)(=O)Nc2ccncn2)cc1C1CC1 [Example 96, 5-cyclopropyl-4-(((1S,2S)-2-(ethylamino)cyclohexyl)oxy)-2-fluoro-N-(pyrimidin-4-yl)benzenesulfonamide]	630 nM		
CN(C1COC1)[C@H]1CCCC[C@@H]1Nc1cc(F)c(S(=O)(=O)Nc2nccs2)cc1Cl [Example 97, 5-chloro-2-fluoro-4-(((1S,2S)-2-(methyl(oxetan-3-yl)amino)cyclohexyl)amino)-N-(thiazol-2-yl)benzenesulfonamide]	36.4 nM		
O=S(=O)(Nc1cccc(F)n1)c1cc(Cl)c(N[C@@H]2CCCC[C@H]2N2CCCC2)cc1F [Example 98, 5-chloro-2-fluoro-N-(6-fluoropyridin-2-yl)-4-(((1R,2R)-2-(pyrrolidin-1-yl)cyclohexyl)amino)benzenesulfonamide]	3000 nM		
O=S(=O)(Nc1cccc(F)n1)c1cc(Cl)c(N[C@H]2CCCC[C@@H]2N2CCCC2)cc1F [Example 99, 5-chloro-2-fluoro-N-(6-fluoropyridin-2-yl)-4-(((1S,2S)-2-(pyrrolidin-1-yl)cyclohexyl)amino)benzenesulfonamide]	65.5 nM		
CCN[C@H]1CCCC[C@@H]1Nc1cc(F)c(S(=O)(=O)Nc2ccncn2)cc1C1CC1 [Example 100, 5-cyclopropyl-4-(((1S,2S)-2-(ethylamino)cyclohexyl)amino)-2-fluoro-N-(pyrimidin-4-yl)benzenesulfonamide]	127 nM		
O=S(=O)(Nc1nccs1)c1cc(Cl)c(N[C@H]2CCCC[C@@H]2N2CCOCC2)cc1F [Example 101, 5-chloro-2-fluoro-4-(((1S,2S)-2-morpholinocyclohexyl)amino)-N-(thiazol-2-yl)benzenesulfonamide]	25.5 nM		
CN(C)[C@@H]1CC[C@H](c2cccc(C(F)(F)F)c2)C[C@H]1Nc1cc(F)c(S(=O)(=O)Nc2nccs2)cc1Cl [Example 103, 5-chloro-4-(((1R,2R,5S)-2-(dimethylamino)-5-(3-(trifluoromethyl)phenyl)cyclohexyl)amino)-2-fluoro-N-(thiazol-2-yl)benzenesulfonamide]	32.2 nM		
O=S(=O)(Nc1nccs1)c1cc(Cl)c(N[C@H]2CCCC[C@@H]2N2CCC(F)C2)cc1F (stereo partly drawn) [Example 104, 5-chloro-2-fluoro-4-(((1S,2S)-2-(3-fluoropyrrolidin-1-yl)cyclohexyl)amino)-N-(thiazol-2-yl)benzenesulfonamide]	35.6 nM		
